Results reported in paper PMC3503826, “Limits of Ligand Selectivity from Docking to Models: In Silico Screening for A1 Adenosine Receptor Antagonists” (PLoS ONE, 2012).

What was measured:
[1] = target: bovine A1AR; set-up: method as in PMID 21080692; conditions: reference compound; cited from earlier work
[2] = target: T1, human A1AR (Homo sapiens, UniProt P30542); assay: Radioligand binding ([3H]DPCPX), membranes of CHO cells expressing hA1AR; conditions: for inhibition at 10 µM: percent inhibition at 10 µM compound, [3H]DPCPX, read-out: A1 % Inhibition; for inhibition at 10 µM / Ki: hA1AR, CHO cell membranes; for Ki: [3H]DPCPX 0.5 nM, mean ± standard error, read-out: A1 Ki
T1 construct: expressed in transfected cells
T1 sequence (P30542 1-326): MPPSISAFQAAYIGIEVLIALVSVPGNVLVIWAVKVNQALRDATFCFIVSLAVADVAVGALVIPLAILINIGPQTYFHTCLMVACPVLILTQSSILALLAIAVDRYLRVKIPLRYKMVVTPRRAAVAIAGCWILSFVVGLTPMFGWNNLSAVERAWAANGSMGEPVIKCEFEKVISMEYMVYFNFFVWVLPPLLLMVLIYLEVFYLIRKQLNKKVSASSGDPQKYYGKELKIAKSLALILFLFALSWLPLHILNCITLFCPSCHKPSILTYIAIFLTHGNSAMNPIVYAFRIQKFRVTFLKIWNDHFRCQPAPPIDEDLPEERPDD
Experimental: (§1) Binding affinity for three human AR (hAR) subtypes was measured using standard radioligand assays and membrane preparations from Chinese hamster ovary (CHO) cells (A1 and A3) or human embryonic kidney (HEK) 293 cells (A2A) stably expressing a hAR subtype (Table 1).
(§2) Receptor binding assays: [^3H]8-Cyclopentyl-1,3-dipropylxanthine ([^3H]DPCPX, 120 Ci/mmol) and [^125I]N ^6-(4-amino-3-iodobenzyl)adenosine-5'-N-methyluronamide ([^125I]I-AB-MECA, 2200 Ci/mmol) were purchased from Perkin–Elmer Life and Analytical Science (Boston, MA). [^3H](2-[p-(2-Carboxyethyl)phenyl-ethylamino]-5'-N-ethylcarboxamido-adenosine) ([^3H]CGS21680, 39 Ci/mmol) was purchased from American Radiolabeled Chemicals, Inc. (St. Louis, MO). Other pharmacological reagents were purchased from Tocris-R&D Systems, Inc. (Minneapolis, MN). Test compounds were prepared as 5 mM stock solutions in DMSO and stored frozen.
(§3) Cell Culture and Membrane Preparation: CHO cells stably expressing the recombinant hA1 and hA3ARs, and HEK-293 cells stably expressing the hA2AAR were cultured in Dulbecco’s modified Eagle medium (DMEM) and F12 (1∶1) supplemented with 10% fetal bovine serum, 100 units/mL penicillin, 100 µg/mL streptomycin, and 2 µmol/mL glutamine. In addition, 800 µg/mL geneticin was added to the A2A media, while 500 µg/mL hygromycin was added to the A1 and A3 media. After harvesting, cells were homogenized and suspended in PBS. Cells were then centrifuged at 240 g for 5 min, and the pellet was resuspended in 50 mM Tris-HCl buffer (pH 7.5) containing 10 mM MgCl2. The suspension was homogenized and was then ultra-centrifuged at 14,330 g for 30 min at 4°C. The resultant pellets were resuspended in Tris buffer and incubated with adenosine deaminase (3 units/mL) for 30 min at 37°C. The suspension was homogenized with an electric homogenizer for 10 sec, pipetted into 1 mL vials and then stored at -80°C until the binding experiments. The protein concentration was measured using the BCA Protein Assay Kit from Pierce Biotechnology, Inc. (Rockford, IL).
(§4) Binding assays: Standard radioligand binding assays for A1, A2A, and A3ARs were used [37]–[39]. Into each tube in the binding assay was added 50 µL of increasing concentrations of the test ligand in Tris-HCl buffer (50 mM, pH 7.5) containing 10 mM MgCl2, 50 µL of the appropriate agonist radioligand, and finally 100 µL of membrane suspension. For the A1AR (22 µg of protein/tube) the radioligand used was [^3H]DPCPX (final concentration of 0.5 nM). For the A2AAR (20 µg/tube) the radioligand used was [^3H]CGS21680 (final concentration 10 nM). For the A3AR (21 µg/tube) the radioligand used was [^125I]I-AB-MECA (final concentration 0.2 nM). Nonspecific binding was determined using a final concentration of 10 µM NECA diluted with the buffer. The mixtures were incubated at 25°C for 60 min in a shaking water bath. Binding reactions were terminated by filtration through Brandel GF/B filters under a reduced pressure using a M-24 cell harvester (Brandel, Gaithersburg, MD). Filters were washed three times with 3 mL of 50 mM ice-cold Tris-HCl buffer (pH 7.5). Filters for A1 and A2AAR binding were placed in scintillation vials containing 5 mL of Hydrofluor scintillation buffer and counted using a Perkin Elmer Liquid Scintillation Analyzer (Tri-Carb 2810TR). Filters for A3AR binding were counted using a Packard Cobra II γ-counter.
(§5) Data analysis: Binding and functional parameters were calculated using Prism 5.0 software (GraphPAD, San Diego, CA, USA). IC50 values obtained from binding inhibition curves were converted to Ki values using the Cheng-Prusoff equation [40]. Data were expressed as mean ± standard error or percentage inhibition at 10 µM.

[3] = target: T2, human A2AAR (Homo sapiens, UniProt P29274); assay: Radioligand binding ([3H]CGS21680), membranes of HEK293 cells expressing hA2AAR; conditions: HEK293 cell membranes; for Ki: [3H]CGS21680 10 nM, mean ± standard error, read-out: A2A Ki; for inhibition at 10 µM: percent inhibition at 10 µM compound, [3H]CGS21680, read-out: A2A % Inhibition
T2 construct: expressed in transfected cells
Experimental: as §1, §2, §3, §4, §5

[4] = target: T3, human A3AR (Homo sapiens, UniProt P0DMS8); assay: Radioligand binding ([125I]I-AB-MECA), membranes of CHO cells expressing hA3AR; conditions: for inhibition at 10 µM: percent inhibition at 10 µM compound, [125I]I-AB-MECA, read-out: A3 % Inhibition; for inhibition at 10 µM / Ki: hA3AR, CHO cell membranes; for Ki: [125I]I-AB-MECA 0.2 nM, mean ± standard error, read-out: A3 Ki
T3 construct: expressed in transfected cells
T3 sequence (P0DMS8 1-318): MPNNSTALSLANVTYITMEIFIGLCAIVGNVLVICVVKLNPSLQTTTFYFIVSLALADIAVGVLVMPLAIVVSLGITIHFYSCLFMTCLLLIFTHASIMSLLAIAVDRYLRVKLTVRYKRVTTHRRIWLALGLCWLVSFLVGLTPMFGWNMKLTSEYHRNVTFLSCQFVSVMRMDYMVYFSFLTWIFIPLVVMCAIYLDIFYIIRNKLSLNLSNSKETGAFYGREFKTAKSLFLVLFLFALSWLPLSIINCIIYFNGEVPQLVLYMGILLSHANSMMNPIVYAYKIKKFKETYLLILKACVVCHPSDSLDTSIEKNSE
Experimental: as §1, §2, §3, §4, §5

T2 sequence (P29274 whole entry): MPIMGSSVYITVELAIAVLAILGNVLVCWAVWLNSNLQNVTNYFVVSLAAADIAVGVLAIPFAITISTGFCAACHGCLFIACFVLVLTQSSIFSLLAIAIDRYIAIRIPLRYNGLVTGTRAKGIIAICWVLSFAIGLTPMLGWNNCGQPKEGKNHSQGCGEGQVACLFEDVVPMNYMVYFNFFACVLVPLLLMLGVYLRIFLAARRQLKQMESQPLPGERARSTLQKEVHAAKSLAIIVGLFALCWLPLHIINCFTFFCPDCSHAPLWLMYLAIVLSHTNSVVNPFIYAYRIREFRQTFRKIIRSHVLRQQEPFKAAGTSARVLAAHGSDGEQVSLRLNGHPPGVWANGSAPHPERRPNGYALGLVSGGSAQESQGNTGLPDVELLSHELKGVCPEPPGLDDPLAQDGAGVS

SMILES | inhibition at 10 µM [2] | Ki [3] | Ki [2] | Ki [4] | further results
OC1CCC(Nc2nc(-c3ccccc3)nc3c2nnn3Cc2ccccc2)CC1 (stereo not drawn) [Compound 5, 4-[(3-benzyl-5-phenyl-triazolo[4,5-e]pyrimidin-7-yl)amino]cyclohexan-1-ol] | – | – | – | – | Ki [1]: 0.003 µM
CC(NC(=O)c1ccco1)C(=O)Nc1nc(-c2ccccn2)cs1 (stereo not drawn) [Compound 7] | 17 ± 9% | 3.31 ± 0.27 µM | – | – | inhibition at 10 µM [4]: 43 ± 3%
O=C(Nc1nc(-c2ccccn2)cs1)c1cccc(-n2cnnn2)c1 [Compound 8] | – | – | 3.46 ± 0.42 µM | – | Selectivity for A1AR over A2AAR and A3AR ([2]; by the criteria used in this screen (>50% inhibition at 10 µM)): selective for the A1AR; inhibition at 10 µM [3]: 11 ± 6%; inhibition at 10 µM [4]: 35 ± 4%
Cc1ccccc1Nc1nc(N)nc(COc2ccccc2C#N)n1 [Compound 9] | 2 ± 2% | 2.36 ± 0.26 µM | – | 4.86 ± 0.33 µM | –
O=C(Nc1nc(-c2ccccn2)cs1)c1cc2c(F)cccc2[nH]1 [Compound 10] | 9 ± 9% | – | – | 9.06 ± 1.1 µM | inhibition at 10 µM [3]: 37 ± 1%
CCCn1nc(C(=O)Nc2nc(-c3ccccn3)cs2)ccc1=O [Compound 11] | 13 ± 9% | – | – | 13.7 µM | inhibition at 10 µM [3]: 35 ± 3%
COc1ccc(OCC(=O)Nc2nc(-c3ccccn3)cs2)cc1 [Compound 12] | 28 ± 9% | 3.65 ± 0.87 µM | – | 2.78 ± 0.92 µM | –
COc1cccc(/C=C/C(=O)Nc2nc(-c3ccccn3)cs2)c1 [Compound 13] | 10 ± 10% | 10.9 µM | – | 3.48 ± 1.1 µM | –
Cc1cccc2c(=O)[nH]c(CSc3n[nH]c(C(C)C)n3)nc12 [Compound 14] | 19 ± 10% | 6.54 ± 1.09 µM | – | – | inhibition at 10 µM [4]: 49 ± 1%
Nc1nc(COC(=O)c2cc3cc(F)ccc3[nH]2)nc2ccccc12 [Compound 15] | 20 ± 4% | – | – | 9.33 ± 1.8 µM | inhibition at 10 µM [3]: 5 ± 3%
CN(C(=O)Cc1csc(NC(=O)C2CC2)n1)c1ccccc1 [Compound 16] | 13 ± 2% | – | – | 13.4 µM | inhibition at 10 µM [3]: 36 ± 0.2%
CCOc1cccc2cc(C(=O)NCc3ccccn3)c(=N)oc12 [Compound 17] | – | 0.74 ± 0.39 µM | 0.4 ± 0.06 µM | – | inhibition at 10 µM [4]: 48 ± 7%
Cn1nnnc1SCC(=O)Nc1nc(-c2cccs2)cs1 [Compound 18] | – | 2.13 ± 0.72 µM | 3.43 ± 1.03 µM | 1.76 ± 0.21 µM | –
Cn1c(=O)c2[nH]c(NCC3CCCO3)nc2n(-c2ccccc2)c1=O (stereo not drawn) [Compound 19] | – | 6.66 ± 0.86 µM | 3.34 ± 0.56 µM | – | inhibition at 10 µM [4]: 23 ± 3%
N#Cc1cccc(C(=O)Nc2nc(-c3ccccn3)cs2)c1 [Compound 20] | 45% | 3.56 ± 0.51 µM | – | 1.52 ± 0.36 µM | –
CCS(=O)(=O)Nc1cccc(C(=O)Nc2nc3ccccc3[nH]2)c1 [Compound 21] | – | 1.34 ± 0.31 µM | 0.98 ± 0.09 µM | 0.205 ± 0.03 µM | –
CCN(Cc1nc2ccccc2c(=O)[nH]1)C(=O)c1cc(C2CC2)[nH]n1 [Compound 22] | 36% | 9.3 ± 0.7 µM | – | – | inhibition at 10 µM [4]: 42 ± 6%
O=C(Nc1nc(-c2cccc(F)c2)cs1)c1ccc2[nH]nnc2c1 [Compound 23] | – | 3.78 ± 0.83 µM | 1.22 ± 0.34 µM | 0.07 ± 0.02 µM | –
Nc1nc(Cn2nnc(-c3ccccc3)n2)nc(Nc2ccccc2)n1 [Compound 24] | 33 ± 9% | 6.14 ± 1.69 µM | – | 0.04 ± 0.006 µM | Selectivity for A3AR ([4]; judged from Ki at the three hAR subtypes): slightly selective
C=CCOc1ccccc1/C=N/Nc1nc2ccccc2c(=O)n1C [Compound 25] | – | 1.45 ± 0.17 µM | 2.93 ± 0.48 µM | 0.55 ± 0.07 µM | –
Cc1cc(C)c2c(=O)[nH]c(SCC(=O)Nc3cc(C)on3)nc2n1 [Compound 26] | – | 1.37 ± 0.47 µM | 3.94 ± 0.39 µM | 3.85 ± 0.59 µM | –
